Measured values from patent US8629330B2, “Methods and compositions for the inhibition of meristematic growth on cucurbit rootstock” (Syngenta Participations AG, priority 2012, dated 2014).

Columns and labels:
[1] = tested on: shoot apical meristem of cucurbit rootstock plant; assay: Inhibition of the shoot apical meristem of cucurbit rootstock; type: in vivo; details: fatty alcohols about 2.3% (v/v); Oryzalin about 10 mM; sulfuric acid about 18N to about 9N; applied to shoot apical meristem
Source text: Rootstock plants, bottle gourd (Lagenaria siceraria var. ‘Emphasis’) or interspecific hybrid squash (C. maxima×C. moschata var. ‘Carnivor’), were sown in Fafard 3-b fertilizer-free mix and allowed to germinate. At the point when the cotyledons unfolded, (approx. 5-10 days after seeding) a droplet of a composition comprising fatty alcohols was applied to the shoot apical meristem of the seedling, between the cotyledons, so that the meristem was covered with solution. […] The droplet volume was 20 to 500 μL and was applied with a pipette (20-200 μL or 1000 μL volume capability, using plastic tips). Seedlings were watered prior to treatment, to avoid needing to water post-treatment, which can dilute or wash away the fatty alcohol solution and prevent burnout of the shoot apical meristem. The treated rootstock seedlings can then be grafted to the appropriate scion at about 1 to 21 days post-treatment. In this case, the rootstock seedling was grafted to a cucurbit scion at about 24 hours after the rootstock shoot apical meristem was first contacted with the fatty alcohol composition.
Maleic hydrazide (21.7%; Royal MH-30®; Chemtura Corp., Middlebury, Conn.) at a concentration of about 90 mg/ml was applied to the shoot apical meristem of rootstock plant. The treated rootstock plants were incubated for about 24 hours prior to grafting to a scion.

[2] = tested on: cucurbit rootstock seedling grafted to watermelon or melon scion
Procedure: Grafting can be performed at about 1-21 days after a rootstock shoot apical meristem is treated with a fatty alcohol solution. Possible grafting methods include the following: 1) hole-insertion, in which the rootstock meristem is removed, a hole is punched into the old meristematic area with a bamboo needle, and the scion (cut at the end to both sharpen and expose vascular cambium tissue) is inserted into the prepared rootstock; and 2) one cotyledon, where the rootstock's meristem area and one cotyledon are removed, and the cut scion hypocotyl is adjoined to the resulting wound, stabilized with a clip, and allowed to heal. Once grafted, the plants are placed for approximately seven days in a healing chamber under high humidity for about the first 1-3 days, and then gradually decreasing humidity for the remaining days. After about seven days of healing, the grafted plants can be removed from the chamber and planted.
In this case, the cucurbit rootstock seedling as described in Example 1 was grafted to a cucurbit scion, watermelon (Citrullus lanatus subsp. vulgaris cv. ‘Tri-X-313’) or melon (Cucumis melo cv. ‘Athena’) at about 24 hours after the rootstock shoot apical meristem was first contacted with the fatty alcohol composition. Seven days were allowed for the graft to heal. […]

O=S(=O)(O)O [sulfuric acid, Sulfuric acid]
effect on rootstock shoot apical meristem [1]: death of the shoot apical meristem | successful grafts out of 2016 attempted grafts ([2]; grafted about 24 hours after treatment, fatty alcohols about 2.3% (v/v), maleic hydrazide about 90 mg/ml, Oryzalin about 10 mM, sulfuric acid about 18N to about 9N): none were successful | effect on grafting tissues ([2]; sulfuric acid about 18N to about 9N applied to shoot apical meristem): the grafting tissues were also destroyed
